Read-outs that look alike come from different tables or passages of the source.
Test system: C. elegans
[1] = Table S2, C. elegans SS assay, 110 μM, 0 h, averages of 4 data points
[2] = Table S2, C. elegans SS assay, 110 μM, 24 h, averages of 4 data points

Row | SMILES | Percentage of motility inhibition 0 h [1] [%] | Percentage of motility inhibition 24 h [2] [%] | Percentage of motility inhibition 0 h (110 µM) [%] | Percentage of motility inhibition 24 h (110 µM) [%]
1 | C=C(CCC=C(C)C)[C@H]1CC[C@]2(C)[C@@H]1[C@H](O)C[C@@H]1[C@@]3(C)CC[C@H](O)C(C)(C)[C@@H]3[C@@H](O[C@@H]3O[C@H](CO)[C@@H](O)[C@H](O)[C@H]3O[C@@H]3O[C@@H](C)[C@H](O)[C@@H](O)[C@H]3O)C[C@]12C [Ginsenoside Rg6] | 1 | 4 | – | –
2 | C=C(CCC=C(C)C)[C@H]1CC[C@]2(C)[C@@H]1[C@H](O)C[C@@H]1[C@@]3(C)CC[C@H](O[C@@H]4O[C@H](CO)[C@@H](O)[C@H](O)[C@H]4O[C@@H]4O[C@H](CO)[C@@H](O)[C@H](O)[C@H]4O)C(C)(C)[C@@H]3CC[C@]12C [Ginsenoside Rk1] | 4 | 0 | – | –
3 | C=C(CCC=C(C)C)[C@H]1CC[C@]2(C)[C@@H]1[C@H](O)C[C@@H]1[C@@]3(C)CC[C@H](O)C(C)(C)[C@@H]3[C@@H](O[C@@H]3O[C@H](CO)[C@@H](O)[C@H](O)[C@H]3O)C[C@]12C [Ginsenoside Rk3] | 0 | 19 | – | –
4 | CC1(C)CC[C@]2(C(=O)O[C@@H]3O[C@H](CO)[C@@H](O)[C@H](O)[C@H]3O)CC[C@]3(C)C(=CC[C@@H]4[C@@]5(C)CC[C@H](O[C@@H]6O[C@H](C(=O)O)[C@@H](O)[C@H](O)[C@H]6O[C@@H]6O[C@H](CO)[C@@H](O)[C@H](O)[C@H]6O)C(C)(C)[C@@H]5CC[C@]43C)[C@@H]2C1 [Ginsenoside Ro] | 1 | 0 | – | –
5 | O=C([O-])[C@H](O)[C@@H](O)[C@H](O)[C@H](O)CO.[Na+] [Gluconate (sodium)] | 15 | 3 | – | –
6 | C[S+]([O-])CCCC/C(=N\OS(=O)(=O)O)S[C@@H]1O[C@H](CO)[C@@H](O)[C@H](O)[C@H]1O (some centres unmarked) [Glucoraphanin] | 12 | 0 | – | –
7 | NCC(=O)O [Glycine] | – | – | 32 | 13
8 | COc1cc2c(=O)c(-c3ccc(O)cc3)coc2cc1O[C@@H]1O[C@H](CO)[C@@H](O)[C@H](O)[C@H]1O [Glycitin] | 30 | 4 | – | –
9 | C[C@H](CCC(=O)NCC(=O)[O-])[C@H]1CC[C@H]2[C@@H]3[C@H](O)C[C@@H]4C[C@H](O)CC[C@]4(C)[C@H]3C[C@H](O)[C@]12C.[Na+] [Glycocholic acid (sodium)] | 0 | 0 | – | –
10 | O=C(O)CO [Glycolic acid] | 5 | 6 | – | –
11 | C[C@H](CCC(=O)NCC(=O)O)[C@H]1CC[C@H]2[C@@H]3CC[C@@H]4C[C@H](OS(=O)(=O)O)CC[C@]4(C)[C@H]3CC[C@]12C [Glycolithocholic acid 3-sulfate] | 13 | 33 | – | –
12 | CC1(C)[C@@H](O[C@@H]2O[C@H](C(=O)O)[C@@H](O)[C@H](O)[C@H]2O)CC[C@]2(C)[C@H]3C(=O)C=C4[C@@H]5C[C@@](C)(C(=O)O)CC[C@]5(C)CC[C@@]4(C)[C@]3(C)CC[C@@H]12 [Glycyrrhetic acid 3-O-β-D-glucuronide] | 2 | 22 | – | –
13 | CC(=O)O.Cc1cc2c(C(C)C)c(O)c(O)c(C=O)c2c(O)c1-c1c(C)cc2c(C(C)C)c(O)c(O)c(C=O)c2c1O [Gossypol (acetic acid)] | 0 | 7 | – | –
14 | COc1cc2c(cc1O)CC[n+]1cc3c4c(ccc3cc1-2)OCO4 [Groenlandicine] | 0 | 0 | – | –
15 | O=c1c(O[C@@H]2OC[C@H](O)[C@H](O)[C@H]2O)c(-c2ccc(O)c(O)c2)oc2cc(O)cc(O)c12 [Guaijaverin] | 0 | 25 | – | –
16 | C=C1CC23CC4[C@@H]5[C@@]6(C)C[C@H](OC(C)=O)C[C@]57C(N4C6)[C@@]2(O)C(OC(C)=O)[C@H]1[C@@H](O)[C@H]37 (some centres unmarked) [Guanfu base A] | 0 | 0 | – | –
17 | COC(=O)C1=CCCNC1.Cl [Guvacoline (hydrochloride)] | 0 | 0 | – | –
18 | CC1(C)C[C@H]2C3=CC[C@@H]4[C@@]5(C)CC[C@H](O)[C@@](C)(CO)[C@@H]5CC[C@@]4(C)[C@]3(C)C[C@H](O)[C@@]2(CO)[C@@H](O)[C@@H]1O [Gymnemagenin] | 0 | 52 | – | –
19 | C/C=C(\C)C(=O)O[C@H]1[C@H](O)[C@]2(COC(C)=O)[C@@H](O)C[C@]3(C)C(=CC[C@@H]4[C@@]5(C)CC[C@H](O[C@@H]6O[C@H](C(=O)O)[C@@H](O)[C@H](O)[C@H]6O)[C@@](C)(CO)[C@@H]5CC[C@]43C)[C@@H]2CC1(C)C [Gymnemic acid I] | 20 | 0 | – | –
20 | CC(C)=CC1CC(O)(C2CCC3(C)C2CCC2C4(C=O)CCC(OC5OCC(O)C(OC6OCC(O)C(O)C6O)C5OC5OC(C)C(O)C(O)C5O)C(C)(C)C4CCC23C)C(O)O1 (centres unmarked) [Gypenoside A] | 0 | 0 | – | –
21 | CC(C)=CCC[C@@](C)(O)[C@H]1CC[C@]2(C)[C@@H]1[C@H](O)C[C@@H]1[C@@]3(C)C[C@@H](O)[C@H](O[C@@H]4O[C@H](CO)[C@@H](O)[C@H](O)[C@H]4O[C@@H]4O[C@H](CO)[C@@H](O)[C@H](O)[C@H]4O)C(C)(C)[C@@H]3CC[C@]12C [Gypenoside LI] | 0 | 0 | – | –
22 | CC(C)=CCC[C@](C)(O)[C@H]1CC[C@]2(C)[C@@H]1[C@H](O)C[C@@H]1[C@@]3(C)C[C@@H](O)[C@H](O[C@@H]4O[C@H](CO)[C@@H](O)[C@H](O)[C@H]4O[C@@H]4O[C@H](CO)[C@@H](O)[C@H](O)[C@H]4O)C(C)(C)[C@@H]3CC[C@]12C [Gypenoside L] | 22 | 15 | – | –
23 | CC(C)=CCC[C@](C)(O[C@@H]1O[C@H](CO[C@@H]2OC[C@@H](O)[C@H](O)[C@H]2O)[C@@H](O)[C@H](O)[C@H]1O)[C@H]1CC[C@]2(C)[C@@H]1[C@H](O)C[C@@H]1[C@@]3(C)CC[C@H](O)C(C)(C)[C@@H]3CC[C@]12C [Gypenoside XIII] | 7 | 13 | – | –
24 | CC(C)=CCC[C@@](O)(CO[C@@H]1O[C@H](CO)[C@@H](O)[C@H](O)[C@H]1O)[C@H]1CC[C@]2(C)[C@@H]1CC[C@@H]1[C@@]3(C=O)CC[C@H](O[C@@H]4OC[C@H](O)[C@H](O[C@@H]5OC[C@@H](O)[C@H](O)[C@H]5O)[C@H]4O[C@@H]4O[C@@H](C)[C@H](O)[C@@H](O)[C@H]4O)C(C)(C)[C@@H]3CC[C@]12C [Gypenoside XLIX] | 3 | 6 | – | –
25 | CC(C)=CCCC(C)(OC1OC(CO)C(O)C(O)C1O)C1CCC2(C)C1C(O)CC1C3(C)CC(O)C(OC4OC(CO)C(O)C(O)C4OC4OC(CO)C(O)C(O)C4O)C(C)(C)C3CCC12C (centres unmarked) [Gypenoside XLVI] | 1 | 2 | – | –

Reference: article PMC11855827, “High-Throughput Screening of Five Compound Libraries for Anthelmintic Activity and Toxicity Leads to the Discovery of Two Flavonoid Compounds” (International Journal of Molecular Sciences, 2025)
